We go through 19 molecules from US9227971B2, “Pyrazolo[1,5-a]pyrimidine compounds as mTOR inhibitors” (Merck Sharp & Dohme Corp., priority 2010, dated 2016).

Assay [1] relates to phosphorylated AKT Ser473 (pAKT S473), mTORC2 activity, PC3 cells. Kind of assay: mTOR target engagement assay, immunofluorescent cell-based, pAKT S473 readout (mTORC2 activity). An outline of the steps:
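After blocking, cells were stained overnight at 4 °C with anti-pAKT S473 antibody, then a fluorescent secondary; inhibition was read as reduced fluorescence intensity.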

The test system of assay [2] is phosphorylated 4E-BP1 Thr37/46 (p4E-BP1 Thr37/46), mTORC1 activity, PC3 cells. Kind of assay: mTOR target engagement assay, immunofluorescent cell-based, p4E-BP1 Thr37/46 readout (mTORC1 activity). The conditions noted are these: read-out: p4E-BP1 Thr37/46 IC50. An outline of the steps:
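Seed PC3 cells overnight; treat with compound dilutions for ninety minutes at 37° C; fix with glyoxal and block; stain with anti-p4E-BP1 Thr37/46 overnight at 4° C, then fluorescent secondary; read fluorescence and fit IC50 against DMSO-only controls.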

Setting [3] is: Homo sapiens, PC-3, PC3 cells, compound treatment ninety minutes at 37° C.
The mark [4] stands for this setting: Homo sapiens, PC-3, Table 3-1, PC3 cells.
[5] abbreviates: Homo sapiens, PC-3, Table 6-1, PC3 cells.

Like-named read-outs stand apart in the source and are kept apart here.

As for `CC(=O)c1c([C@@H]2C[C@H]3CC[C@@H](C2)N3C(=O)CO)nc2c(-c3ccc(-c4ccccc4F)nc3)cnn2c1N` [Compound 1.1.172, 1-((1R,3s,5S)-3-(6-acetyl-7-amino-3-(6-(2-fluorophenyl)pyridin-3-yl)pyrazolo[1,5-a]pyrimidin-5-yl)-8-azabicyclo[3.2.1]octan-8-yl)-2-hydroxyethanone], the IC50 in assay [1] (setting [3]) and in assay [2] (setting [3]) was 1 to 100 nM throughout.
Take `CS(=O)(=O)c1c([C@@H]2C[C@H]3CC[C@@H](C2)N3C(=O)c2nnc[nH]2)nc2c(-c3ccc(-c4ccc(C(F)(F)F)cc4F)nc3)cnn2c1N` [Compound 3.110, ((1R,3s,5S)-3-(7-amino-3-(6-(2-fluoro-4-(trifluoromethyl)phenyl)pyridin-3-yl)-6-(methylsulfonyl)pyrazolo[1,5-a]pyrimidin-5-yl)-8-azabicyclo[3.2.1]octan-8-yl)(4H-1,2,4-triazol-3-yl)methanone]: the figures for the IC50 in assay [1] (setting [4]) and in assay [2] (setting [4]) were 100 to 1000 nM and 1000 to 10000 nM, respectively.
Turning to `CC(=O)c1c([C@@H]2C[C@H]3CC[C@@H](C2)N3C(=O)c2cc(N)n[nH]2)nc2c(-c3ccc(C(N)(C(F)(F)F)C(F)(F)F)nc3)cnn2c1N` [Compound 7.84, 1-(7-amino-3-(6-(2-amino-1,1,1,3,3,3-hexafluoropropan-2-yl)pyridin-3-yl)-5-((1R,3s,5S)-8-(3-amino-1H-pyrazole-5-carbonyl)-8-azabicyclo[3.2.1]octan-3-yl)pyrazolo[1,5-a]pyrimidin-6-yl)ethanone], the IC50 in assay [1] (Homo sapiens, PC-3, PC3 cells) lay in the range of 1000 to 10000 nM; in assay [2] (Homo sapiens, PC-3, PC3 cells) it was 1000 to 10000 nM.
As for `Cn1cc(-c2cnn3c(N)c(S(C)(=O)=O)c([C@@H]4C[C@H]5CC[C@@H](C4)N5C(=O)CO)nc23)cn1` [Compound 3.112, 1-((1R,3s,5S)-3-(7-amino-3-(1-methyl-1H-pyrazol-4-yl)-6-(methylsulfonyl)pyrazolo[1,5-a]pyrimidin-5-yl)-8-azabicyclo[3.2.1]octan-8-yl)-2-hydroxyethanone], the IC50 in assay [1] (setting [4]) was more than 10000 nM; in assay [2] (setting [4]), 1000 to 10000 nM.
Consider `CS(=O)(=O)c1c([C@@H]2C[C@H]3CC[C@@H](C2)N3C(=O)CO)nc2c(-c3ccc(-c4ccccc4F)nc3)cnn2c1N` [Compound 3.132, 1-((1R,3a,5S)-3-(7-amino-3-(6-(2-fluorophenyl)pyridin-3-yl)-6-(methylsulfonyl)pyrazolo[1,5-a]pyrimidin-5-yl)-8-azabicyclo[3.2.1]octan-8-yl)-2-hydroxyethanone], for which the IC50 is 1 to 100 nM in assay [1] (setting [4]) and 100 to 1000 nM in assay [2] (setting [4]).
As for `CC(=O)c1c([C@@H]2C[C@H]3CC[C@@H](C2)N3C(=O)CO)nc2c(-c3ccc(-c4ncn(C)n4)nc3)cnn2c1N` [Compound 1.1.89, 1-((1R,3s,5S)-3-(6-acetyl-7-amino-3-(6-(1-methyl-1H-1,2,4-triazol-3-yl)pyridin-3-yl)pyrazolo[1,5-a]pyrimidin-5-yl)-8-azabicyclo[3.2.1]octan-8-yl)-2-hydroxyethanone], the IC50 in assay [1] (setting [3]) and in assay [2] (setting [3]) was 100 to 1000 nM each time.
In the case of `Cc1nnc(C(=O)N2[C@@H]3CC[C@H]2C[C@H](c2nc4c(-c5ccc(-c6ccc(F)cc6)nc5)cnn4c(N)c2S(C)(=O)=O)C3)[nH]1` [Compound 3.119, ((1R,3s,5S)-3-(7-amino-3-(6-(4-fuorophenyl)pyridin-3-yl)-6-(methylsulfonyl)pyrazolo[1,5-a]pyrimidin-5-yl)-8-azabicyclo[3.2.1]octan-8-yl)(5-methyl-4H-1,2,4-triazol-3-yl)methanone], the IC50 lay in the range of 1 to 100 nM in assay [1] (Table 3-1, PC3 cells) and 1 to 100 nM in assay [2] (Table 3-1, PC3 cells).
Regarding `CC(=O)c1c([C@H]2CC3CC[C@H](C2)N3C(=O)c2nnc[nH]2)nc2c(-c3ccc(C(O)C(F)(F)F)nc3)cnn2c1N` (stereo partly drawn) [Compound 7.65, 1-(5-((1R,3s,5S)-8-(4H-1,2,4-triazole-3-carbonyl)-8-azabicyclo[3.2.1]octan-3-yl)-7-amino-3-(6-(2,2,2-trifluoro-1-hydroxyethyl)pyridin-3-yl)pyrazolo[1,5-a]pyrimidin-6-yl)ethanone], the IC50 is 100 to 1000 nM in assay [1] (Homo sapiens, PC-3, PC3 cells) and 100 to 1000 nM in assay [2] (Homo sapiens, PC-3, PC3 cells).
As to `CC(=O)c1c([C@@H]2C[C@H]3CC[C@@H](C2)N3C(=O)c2nnc[nH]2)nc2c(-c3ccc(C#CC4CC4)nc3)cnn2c1N` [Compound 8.60, 1-(5-((1R,3s,5S)-8-(4H-1,2,4-triazole-3-carbonyl)-8-azabicyclo[3.2.1]octan-3-yl)-7-amino-3-(6-(cyclopropylethynyl)pyridin-3-yl)pyrazolo[1,5-a]pyrimidin-6-yl)ethanone], the IC50 lay in the range of 100 to 1000 nM in assay [1] (Homo sapiens, PC-3, PC3 cells) and 100 to 1000 nM in assay [2] (Homo sapiens, PC-3, PC3 cells).
As for `CC(=O)c1c([C@@H]2C[C@H]3CC[C@@H](C2)N3C(=O)CO)nc2c(-c3ccc(C)nc3)cnn2c1N` [Compound 1.1.90, 1-((1R,3s,5S)-3-(6-acetyl-7-amino-3-(6-methylpyridin-3-yl)pyrazolo[1,5-a]pyrimidin-5-yl)-8-azabicyclo[3.2.1]octan-8-yl)-2-hydroxyethanone], the IC50 in assay [1] (setting [3]) and in assay [2] (setting [3]) was 1000 to 10000 nM in each case.
For the molecule `CS(=O)(=O)c1c([C@@H]2C[C@H]3CC[C@@H](C2)N3C(=O)c2c[nH]c(=O)[nH]2)nc2c(-c3ccc(-c4ccccc4)nc3)cnn2c1N` [Compound 3.139, 4-((1R,3s,5S)-3-(7-amino-6-(methylsulfonyl)-3-(6-phenylpyridin-3-yl)pyrazolo[1,5-a]pyrimidin-5-yl)-8-azabicyclo[3.2.1]octane-8-carbonyl)-1H-imidazol-2(3H)-one], the figures for the IC50 in assay [1] (setting [4]) and in assay [2] (setting [4]) were 1 to 100 nM and 100 to 1000 nM, respectively.
On to `CC(=O)c1c([C@@H]2C[C@H]3CC[C@@H](C2)N3C(=O)CO)nc2c(-c3ccc(C4(O)CCC4)nc3)cnn2c1N` [Compound 7.18, 1-((1R,3s,5S)-3-(6-acetyl-7-amino-3-(6-(1-hydroxycyclobutyl)pyridin-3-yl)pyrazolo[1,5-a]pyrimidin-5-yl)-8-azabicyclo[3.2.1]octan-8-yl)-2-hydroxyethanone], for which the IC50 in assay [1] (setting [3]) and in assay [2] (setting [3]) was 100 to 1000 nM in each case.
As to `CC(=O)c1c([C@@H]2C[C@H]3CC[C@@H](C2)N3C(=O)c2cc(N)n[nH]2)nc2c(-c3ccc(-n4cc(C)cn4)nc3)cnn2c1N` [Compound 1.1.132, 1-(7-amino-5-((1R,3s,5S)-8-(3-amino-1H-pyrazole-5-carbonyl)-8-azabicyclo[3.2.1]octan-3-yl)-3-(6-(4-methyl-1H-pyrazol-1-yl)pyridin-3-yl)pyrazolo[1,5-a]pyrimidin-6-yl)ethanone], the IC50 in assay [1] (setting [3]) and in assay [2] (setting [3]) was 1 to 100 nM in each case.
With `Nc1c(C2CC2)c([C@@H]2C[C@H]3CC[C@@H](C2)N3C(=O)NO)nc2c(-c3ccc(-c4ccccc4)nc3)cnn12` [Compound 4.32, (1R,3s,5S)-3-(7-amino-6-cyclopropyl-3-(6-phenylpyridin-3-yl)pyrazolo[1,5-a]pyrimidin-5-yl)-N-hydroxy-8-azabicyclo[3.2.1]octane-8-carboxamide], the IC50 in assay [1] (setting [3]) and in assay [2] (setting [3]) was 1 to 100 nM throughout.
For the molecule `Cc1cnc(-c2ccc(-c3cnn4c(N)c(S(C)(=O)=O)c([C@@H]5C[C@H]6CC[C@@H](C5)N6C(=O)C(O)C(F)(F)F)nc34)cn2)s1` (stereo partly drawn) [Compound 3.187, 1-((1R,3s,5S)-3-(7-amino-6-(methylsulfonyl)-3-(6-(5-methylthiazol-2-yl)pyridin-3-yl)pyrazolo[1,5-a]pyrimidin-5-yl)-8-azabicyclo[3.2.1]octan-8-yl)-3,3,3-trifluoro-2-hydroxypropan-1-one], the IC50 in assay [1] (setting [4]) and in assay [2] (setting [4]) was 1000 to 10000 nM in each case.
For the molecule `CCS(=O)(=O)c1c([C@@H]2C[C@H]3CC[C@@H](C2)N3C(=O)c2nnc[nH]2)nc2c(-c3ccc(-c4ccccc4)nc3)cnn2c1N` [Compound 3.161, ((1R,3s,5S)-3-(7-amino-6-(ethylsulfonyl)-3-(6-phenylpyridin-3-yl)pyrazolo[1,5-a]pyrimidin-5-yl)-8-azabicyclo[3.2.1]octan-8-yl)(4H-1,2,4-triazol-3-yl)methanone], the IC50 in assay [1] (setting [4]) and in assay [2] (setting [4]) was 1 to 100 nM throughout.
As for `COc1ccc(-c2ncc(-c3cnn4c(N)c(S(C)(=O)=O)c([C@@H]5C[C@H]6CC[C@@H](C5)N6C(=O)CO)nc34)cn2)c(F)c1F` [Compound 3.149, 1-((1R,3s,5S)-3-(7-amino-3-(2-(2,3-difluoro-4-methoxyphenyl)pyrimidin-5-yl)-6-(methylsulfonyl)pyrazolo[1,5-a]pyrimidin-5-yl)-8-azabicyclo[3.2.1]octan-8-yl)-2-hydroxyethanone], the IC50 in assay [1] (setting [4]) lay within 1000 to 10000 nM; in assay [2] (setting [4]) it was 100 to 1000 nM.
Consider `CC(=O)c1c([C@@H]2C[C@H]3CC[C@@H](C2)N3C(=O)CO)nc2c(-c3ccc(-n4cccn4)nc3)cnn2c1N` [Compound 1.1.178, 1-((1R,3s,5S)-3-(3-(6-(1H-pyrazol-1-yl)pyridin-3-yl)-6-acetyl-7-aminopyrazolo[1,5-a]pyrimidin-5-yl)-8-azabicyclo[3.2.1]octan-8-yl)-2-hydroxyethanone], for which the IC50 fell in the range of 1 to 100 nM in assay [1] (setting [3]) and 100 to 1000 nM in assay [2] (setting [3]).
`CCc1c([C@@H]2C[C@H]3CC[C@@H](C2)N3C(=O)CO)nc2c(-c3ccc(-c4ncc[nH]4)nc3)cnn2c1N` [Compound 6.5, 1-((1R,3s,5S)-3-(3-(6-(1H-imidazol-2-yl)pyridin-3-yl)-7-amino-6-ethylpyrazolo[1,5-a]pyrimidin-5-yl)-8-azabicyclo[3.2.1]octan-8-yl)-2-hydroxyethanone]: the IC50 in assay [1] (setting [5]) and in assay [2] (setting [5]) was 1 to 100 nM throughout.
